Patent publication US11964941B2, “5-Bromo-indirubins” (City of Hope, priority 2014, dated 2024)

Key:
Type in all cases: cell-based, human
[1] = test system: MDA-MB-231 breast cancer cells; experiment: MTS cell viability, MDA-MB-231 breast cancer cells; details: Homo sapiens, 48 h, read-out: IC50 for 50% inhibition of viability
Procedure: (§1) MTS assays were performed for cell viability. Human cancer cells were seeded in 96-well plates (2500 cells/well for solid tumors, 5000 cells/well for blood tumors), incubated overnight at 37 C in 5% CO2, and exposed to 5IN-1NH1 or 5IN-1NH1s in a dose-dependent manner for 48 h. See FIGS. 1A-1B, 2A-2B, 3, 4A-4B, and 6A-6B. Dimethyl sulfoxide (DMSO) was used as the vehicle control. Viable cell numbers were determined by tetrazolium conversion to its formazan dye and absorbance was measured at 490 nm using an automated ELISA plate reader. Each experiment was performed in quadruplicate. IC50 values were determined using CalcuSyn software (BIOSOFT®, Cambridge GB).

A549 lung cancer cells = experiment: MTS cell viability, A549 lung cancer cells; details: Homo sapiens, 48 h, read-out: IC50 for 50% inhibition of viability
Procedure: as §1

MOLM13 AML cells = experiment: MTS cell viability, MOLM13 AML cells (FLT3-ITD); details: Homo sapiens, MOLM-13, 48 h, read-out: IC50 for 50% inhibition of viability
Procedure: as §1
(§2) Compound (1289) inhibits viabilities of MV4-11 and MOLM13 AML cells that harbor an internal tandem duplication (ITD) mutation. MTS assays were performed for cell viability. Human MV4-11 and MOLM13 AML cells (5000/well) were seeded in 96-well plates, incubated overnight at 37° C. in 5% CO2, and exposed to compound (1289) in a dose-dependent manner for 48 h. Dimethyl sulfoxide (DMSO) was used as the vehicle control. Viable cell numbers were determined by tetrazolium conversion to its formazan dye and absorbance was measured at 490 nm using an automated ELISA plate reader. Each experiment was performed in quadruplicate. IC50 values were determined using CalcuSyn software.

[2] = test system: SKOV3 ovarian cancer cells; experiment: MTS cell viability, SKOV3 ovarian cancer cells; details: Homo sapiens, SK-OV-3, 48 h, read-out: IC50 for 50% inhibition of viability
Procedure: as §1

[3] = test system: DU145 prostate cancer cells; experiment: MTS cell viability, DU145 prostate cancer cells; details: Homo sapiens, DU-145, 48 h, read-out: IC50 for 50% inhibition of viability
Procedure: as §1

A2058 melanoma cells = experiment: MTS cell viability, A2058 melanoma cells; details: Homo sapiens, 48 h, read-out: IC50 for 50% inhibition of viability
Procedure: as §1

KCL22 CML cells = experiment: MTS cell viability, KCL22 CML cells; details: Homo sapiens, KCL-22, 48 h, read-out: IC50 for 50% inhibition of viability
Procedure: as §1

MV4-11 AML cells = experiment: MTS cell viability, MV4-11 AML cells (FLT3-ITD); details: Homo sapiens, 48 h, read-out: IC50 for 50% inhibition of viability
Procedure: as §1, §2

[4] = test system: T315I ABL1 mutant KCL22 CML cells; experiment: MTS cell viability, T315I ABL1 mutant KCL22 CML cells
Procedure: as §1
Human DU145 prostate cancer, A2058 melanoma, SKOV3 ovarian cancer and T315I ABL1 mutant KCL22 CML cells were seeded in 96-well plates (2500 cells/well for solid tumors, 5000 cells/well for blood tumors), incubated overnight at 37° C. in 5% CO2, and exposed to 5IN-6NC1, 5IN-1NH1, 5IN-6NNC6, or 5IN-6NNC7 in a dose-dependent manner for 48 h. Dimethyl sulfoxide (DMSO) was used as the vehicle control. Viable cell numbers were determined by tetrazolium conversion to its formazan dye and absorbance was measured at 490 nm using an automated ELISA plate reader. Each experiment was performed in quadruplicate. IC50 values were determined using CalcuSyn software.

IC50 [1]: 49.5 nM
IC50 (A549 lung cancer cells): 66.5 nM
IC50 (MOLM13 AML cells): 11.3 nM
IC50 [2]: 174 nM
IC50 [3]: 35.7 nM
IC50 (A2058 melanoma cells): 77.2 nM
IC50 (MV4-11 AML cells): 7.8 nM
Compound: CNCCO/N=C1/C(=C2/C(=O)Nc3ccc(Br)cc32)Nc2ccccc21 [5IN-1NH1]
IC50 (KCL22 CML cells): 57.4 nM
IC50 ([4]; Homo sapiens, KCL-22, T315I ABL1 mutant KCL22 CML cells, MTS, 48 h, read-out: IC50 for 50% inhibition of viability): 52.3 nM
potency against T315I KCL22 CML cells relative to compound (1289) ([4]; more potent than compound (1289)): around 10 fold
